Data published in ChEMBL document CHEMBL1201862, “PubChem BioAssay data set” (2004).
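Assay format: 96-well plates, 48-hour exposure. GI50 = concentration required for 50% inhibition of growth.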 Activity calls are given as the source filed them. Cut-off read from the data, not from the text of the source: active = GI50 up to about 1.1 µM and inactive = higher.

Columns and labels:
Experiment in all cases: DTP human tumour cell line panel, 48 h
HL-60 = tested on: HL-60
OVCAR-8 = tested on: OVCAR-8
HOP-92 = tested on: HOP-92
NCI-H226 = tested on: NCI-H226
SF-268 = tested on: SF-268
HCT-116 = tested on: HCT-116
IGROV-1 = tested on: IGROV-1
UO-31 = tested on: UO-31
Malme-3M = tested on: Malme-3M
SN12C = tested on: SN12C
OVCAR-4 = tested on: OVCAR-4
A498 = tested on: A498
M19-MEL = tested on: M19-MEL
K562 = tested on: K562
CCRF-CEM = tested on: CCRF-CEM
LXFL 529 = tested on: LXFL 529
KM12 = tested on: KM12
A549 = tested on: A549
UACC-62 = tested on: UACC-62
CAKI-1 = tested on: CAKI-1
NCI-H460 = tested on: NCI-H460
OVCAR-3 = tested on: OVCAR-3
SK-MEL-5 = tested on: SK-MEL-5
DLD-1 = tested on: DLD-1
DMS-114 = tested on: DMS-114
UACC-257 = tested on: UACC-257
SF-295 = tested on: SF-295
NCI-H522 = tested on: NCI-H522
U-251 = tested on: U-251
HOP-62 = tested on: HOP-62
RXF 393 = tested on: RXF 393
SK-MEL-28 = tested on: SK-MEL-28
TK-10 = tested on: TK-10
XF498 = tested on: XF498
HCC 2998 = tested on: HCC 2998
KM-20L2 = tested on: KM-20L2
SR = tested on: SR
NCI-H23 = tested on: NCI-H23
SNB-75 = tested on: SNB-75
RPMI-8226 = tested on: RPMI-8226
786-0 = tested on: 786-0
SF-539 = tested on: SF-539
ACHN = tested on: ACHN
SW-620 = tested on: SW-620
SNB-78 = tested on: SNB-78
SNB-19 = tested on: SNB-19
SK-OV-3 = tested on: SK-OV-3
RXF 631 = tested on: RXF 631
EKVX = tested on: EKVX
M14 = tested on: M14
HOP-18 = tested on: HOP-18
COLO 205 = tested on: COLO 205
HT-29 = tested on: HT-29
MOLT-4 = tested on: MOLT-4
LOX IMVI = tested on: LOX IMVI
OVCAR-5 = tested on: OVCAR-5
SK-MEL-2 = tested on: SK-MEL-2
HCT-15 = tested on: HCT-15

With `Cc1c(C)c2ccc(OC(C)C(=O)O)cc2oc1=O` (stereo not given) the GI50 (HL-60) was > 100 µM (inactive), the GI50 (OVCAR-8) was > 100 µM (inactive) and the GI50 (HOP-92) was > 100 µM (inactive). The GI50 (NCI-H226) was > 100 µM (inactive), the GI50 (SF-268) was > 100 µM (inactive) and the GI50 (HCT-116) was > 100 µM (inactive). The GI50 (IGROV-1) was > 100 µM (inactive), the GI50 (UO-31) was > 100 µM (inactive) and the GI50 (Malme-3M) was > 100 µM (inactive). For the same molecule, the GI50 (SN12C) was > 100 µM (inactive), the GI50 (OVCAR-4) was > 100 µM (inactive) and the GI50 (A498) was > 100 µM (inactive). The GI50 (M19-MEL) was > 100 µM (inactive), the GI50 (K562) was > 100 µM (inactive) and the GI50 (CCRF-CEM) was > 100 µM (inactive). For the same molecule, the GI50 (LXFL 529) was > 100 µM (inactive), the GI50 (KM12) was > 100 µM (inactive) and the GI50 (A549) was > 100 µM (inactive). For the same molecule, the GI50 (UACC-62) was > 100 µM (inactive), the GI50 (CAKI-1) was > 100 µM (inactive) and the GI50 (NCI-H460) was > 100 µM (inactive). The GI50 (OVCAR-3) was > 100 µM (inactive), the GI50 (SK-MEL-5) was > 100 µM (inactive) and the GI50 (DLD-1) was > 100 µM (inactive). The GI50 (DMS-114) was > 100 µM (inactive), the GI50 (UACC-257) was > 100 µM (inactive) and the GI50 (SF-295) was > 100 µM (inactive). For the same molecule, the GI50 (NCI-H522) was > 100 µM (inactive), the GI50 (U-251) was > 100 µM (inactive) and the GI50 (HOP-62) was > 100 µM (inactive). The GI50 (RXF 393) was > 100 µM (inactive), the GI50 (SK-MEL-28) was > 100 µM (inactive) and the GI50 (TK-10) was > 100 µM (inactive). For the same molecule, the GI50 (XF498) was 35 µM (inactive), the GI50 (HCC 2998) was > 100 µM (inactive) and the GI50 (KM-20L2) was > 100 µM (inactive). For the same molecule, the GI50 (SR) was > 100 µM (inactive), the GI50 (NCI-H23) was > 100 µM (inactive) and the GI50 (SNB-75) was > 100 µM (inactive). For the same molecule, the GI50 (RPMI-8226) was > 100 µM (inactive), the GI50 (786-0) was > 100 µM (inactive) and the GI50 (SF-539) was > 100 µM (inactive). For the same molecule, the GI50 (ACHN) was > 100 µM (inactive), the GI50 (SW-620) was > 100 µM (inactive) and the GI50 (SNB-78) was > 100 µM (inactive). For the same molecule, the GI50 (SNB-19) was > 100 µM (inactive), the GI50 (SK-OV-3) was > 100 µM (inactive) and the GI50 (RXF 631) was > 100 µM (inactive). For the same molecule, the GI50 (EKVX) was > 100 µM (inactive), the GI50 (M14) was > 100 µM (inactive) and the GI50 (HOP-18) was > 100 µM (inactive). The GI50 (COLO 205) was > 100 µM (inactive), the GI50 (HT-29) was > 100 µM (inactive) and the GI50 (MOLT-4) was > 100 µM (inactive). The GI50 (LOX IMVI) was > 100 µM (inactive).

With `CN1COCN/C1=N/C#N` the GI50 (HL-60) was > 100 µM (inactive), the GI50 (OVCAR-8) was > 10 µM (inactive) and the GI50 (NCI-H226) was > 100 µM (inactive). For the same molecule, the GI50 (SF-268) was > 100 µM (inactive), the GI50 (HCT-116) was > 100 µM (inactive) and the GI50 (IGROV-1) was > 100 µM (inactive). For the same molecule, the GI50 (UO-31) was > 100 µM (inactive), the GI50 (Malme-3M) was > 100 µM (inactive) and the GI50 (SN12C) was > 100 µM (inactive). For the same molecule, the GI50 (OVCAR-4) was > 100 µM (inactive), the GI50 (A498) was > 100 µM (inactive) and the GI50 (M19-MEL) was > 100 µM (inactive). The GI50 (OVCAR-5) was > 100 µM (inactive), the GI50 (K562) was > 100 µM (inactive) and the GI50 (CCRF-CEM) was > 100 µM (inactive). The GI50 (LXFL 529) was > 100 µM (inactive), the GI50 (KM12) was > 100 µM (inactive) and the GI50 (A549) was > 100 µM (inactive). The GI50 (UACC-62) was > 100 µM (inactive), the GI50 (CAKI-1) was > 100 µM (inactive) and the GI50 (NCI-H460) was > 100 µM (inactive). For the same molecule, the GI50 (OVCAR-3) was 36.1 µM (inactive), the GI50 (DLD-1) was > 100 µM (inactive) and the GI50 (DMS-114) was > 100 µM (inactive). The GI50 (UACC-257) was > 100 µM (inactive), the GI50 (SF-295) was > 100 µM (inactive) and the GI50 (NCI-H522) was > 100 µM (inactive). The GI50 (HOP-62) was > 100 µM (inactive), the GI50 (SK-MEL-2) was > 100 µM (inactive) and the GI50 (SK-MEL-28) was > 100 µM (inactive). The GI50 (XF498) was > 100 µM (inactive), the GI50 (HCT-15) was over 100 µM and the GI50 (HCC 2998) was > 100 µM (inactive). For the same molecule, the GI50 (KM-20L2) was > 100 µM (inactive), the GI50 (SNB-75) was > 100 µM (inactive) and the GI50 (RPMI-8226) was > 100 µM (inactive). For the same molecule, the GI50 (SF-539) was > 100 µM (inactive), the GI50 (ACHN) was > 100 µM (inactive) and the GI50 (SW-620) was > 100 µM (inactive). For the same molecule, the GI50 (SNB-78) was > 100 µM (inactive), the GI50 (SNB-19) was > 100 µM (inactive) and the GI50 (SK-OV-3) was > 100 µM (inactive). For the same molecule, the GI50 (RXF 631) was > 100 µM (inactive), the GI50 (EKVX) was > 100 µM (inactive) and the GI50 (M14) was > 100 µM (inactive). For the same molecule, the GI50 (HOP-18) was > 100 µM (inactive), the GI50 (COLO 205) was > 100 µM (inactive) and the GI50 (HT-29) was > 100 µM (inactive). The GI50 (MOLT-4) was > 100 µM (inactive) and the GI50 (LOX IMVI) was > 100 µM (inactive).
